The values below come from US10071074B2, “Thieno-indole moieties and methods of treating using the same” (NERVIANO MEDICAL SCIENCES S.R.L., priority 2012, dated 2018).

As usually defined, the IC50 is the concentration that inhibits the measured activity by half.

Each structure is given as a SMILES string. Structures can show the parent of a compound that is named as a salt.

For one experiment, the system named is A2780 human ovarian cancer cells. Briefly: In vitro cell proliferation assay (CellTiter-Glo). In kind it is cell-based. The settings on record: A2780 human ovarian cancer cells, 72 h treatment, CellTiter-Glo; read-out: IC50 value. The procedure: A2780 human ovarian and MCF7 human breast cancer cells (1250 cells/well) were seeded in white 384 well-plates in complete medium (RPMI1640 or EMEM plus 10% Fetal bovine serum) and treated with compounds dissolved in 0.1% DMSO, 24 h after seeding. The cells were incubated at 37° C. and 5% CO2 and after 72 h the plates were processed using CellTiter-Glo assay (Promega) following the manufacturer's instruction.
CellTiter-Glo is a homogenous method based on the quantification of the ATP present, an indicator of metabolitically active cells. ATP is quantified using a system based on luciferase and D-luciferin resulting into light generation. The luminescent signal is proportional to the number of cells present in culture.
Briefly, 25 μL/well of reagent solution are added to each well and after 5 minutes shaking microplates are read by a luminometer. The luminescent signal is proportional to the number of cells present in culture.
On the technique in general: ATP-based viability assays read luminescence as a measure of living cells.
Consider `Cc1csc2c(O)cc3c(c12)[C@H](CCl)CN3C(=O)c1cc2cc(NC(=O)c3cc4cc(OCCN5CCCC5)ccc4[nH]3)ccc2[nH]1` [compound 17, N-(2-{[(8S)-8-(chloromethyl)-4-hydroxy-1-methyl-7,8-dihydro-6H-thieno[3,2-e]indol-6-yl]carbonyl}-1H-indol-5-yl)-5-[2-(pyrrolidin-1-yl)ethoxy]-1H-indole-2-carboxamide], for which the IC50 was < 0.1 nM.

Take `Cc1csc2c(O)cc3c(c12)[C@H](CCl)CN3C(=O)c1cc2cc(OCCN3CCCC3)ccc2[nH]1` [Compd. 37, [(8S)-8-(chloromethyl)-4-hydroxy-1-methyl-7,8-dihydro-6H-thieno[3,2-e]indol-6-yl]{5-[2-(pyrrolidin-1-yl)ethoxy]-1H-indol-2-yl}methanone hydrochloride]: the IC50 is < 0.01 nM. The same measure, in the same setting: the result for `Cc1csc2c1[C@@]13C[C@@H]1CN(C(=O)/C=C/c1c[nH]c4ncccc14)C3=CC2=O` [compound 8, (3bR,4aS)-3-methyl-6-[(2E)-3-(1H-pyrrolo[2,3-b]pyridin-3-yl)prop-2-enoyl]-4,4a,5,6-tetrahydro-8H-cyclopropa[c]thieno[3,2-e]indol-8-one] reads < 0.01 nM; that for `Cc1csc2c1[C@]13C[C@H]1CN(C(=O)/C=C/c1c[nH]c4ncccc14)C3=CC2=O` [Compd. 7, (3bS,4aR)-3-methyl-6-[(2E)-3-(1H-pyrrolo[2,3-b]pyridin-3-yl)prop-2-enoyl]-4,4a,5,6-tetrahydro-8H-cyclopropa[c]thieno[3,2-e]indo-8-one], < 50 nM; that for `Cc1csc2c1[C@]13C[C@H]1CN(C(=O)Nc1cc(C(=O)Nc4cc(C(=O)Nc5cc(C(=O)NCCC(N)=O)n(C)c5)n(C)c4)n(C)c1)C3=CC2=O` [compound 9, (3bS,4aR)-N-(5-{[5-({5-[(3-amino-3-oxopropyl)carbamoyl]-1-methyl-1H-pyrrol-3-yl}carbamoyl)-1-methyl-1H-pyrrol-3-yl]carbamoyl}-1-methyl-1H-pyrrol-3-yl)-3-methyl-8-oxo-4a,5-dihydro-4H-cyclopropa[c]thieno[3,2-e]indole-6(8H)-carboxamide], < 50 nM. The same measure, in the same setting: in the case of `Cc1csc2c1[C@@]13C[C@@H]1CN(C(=O)c1ccc4c(NC(=O)c5ccc6cc[nH]c6c5)c[nH]c4c1)C3=CC2=O` [Compd. 5, N-(6-{[(3bR,4aS)-3-methyl-8-oxo-4a,5-dihydro-4H-cyclopropa[c]thieno[3,2-e]indol-6(8H)-yl]carbonyl}-1H-indol-3-yl)-1H-indole-6-carboxamide] it was < 50 nM; in that of `Cc1csc2c1[C@@]13C[C@@H]1CN(C(=O)c1cc4cc(NC(=O)c5cc6cc(NC(=O)OC(C)(C)C)ccc6[nH]5)ccc4[nH]1)C3=CC2=O` [compound 20, tert-butyl {2-[(2-{[(3bR,4aS)-3-methyl-8-oxo-4a,5-dihydro-4H-cyclopropa[c]thieno[3,2-e]indol-6(8H)-yl]carbonyl}-1H-indol-5-yl)carbamoyl]-1H-indol-5-yl}carbamate], < 0.1 nM; in that of `Cc1csc2c1[C@]13C[C@H]1CN(C(=O)c1cc(NC(=O)c4cc(NC(=O)c5cc([N+](=O)[O-])cn5C)cn4C)cn1C)C3=CC2=O` [compound 6, 1-methyl-N-(1-methyl-5-{[(3bS,4aR)-3-methyl-8-oxo-4a,5-dihydro-4H-cyclopropa[c]thieno[3,2-e]indol-6(8H)-yl]carbonyl}-1H-pyrrol-3-yl)-4-4{[(1-methyl-4-nitro-1H-pyrrol-2-yl)carbonyl]amino}-1H-pyrrole-2-carboxamide], < 50 nM.

As to `Cc1csc2c(O)cc3c(c12)[C@H](CCl)CN3C(=O)c1ccc2c(NC(=O)c3ccc4cc[nH]c4c3)c[nH]c2c1` [Compd. 1], the half-inhibitory concentration (IC50) is < 50 nM. Regarding `Cc1csc2c(O)cc3c(c12)[C@H](CCl)CN3C(=O)c1cc2cc(NC(=O)c3cc4cc(NC(=O)OC(C)(C)C)ccc4[nH]3)ccc2[nH]1` [Compd. 18], the IC50 was < 0.01 nM.

The same experiment, now with this note: Homo sapiens, A2780, 72 h, read-out: IC50 value.
For `Cc1csc2c(OC(=O)N3CCN(C)CC3)cc3c(c12)[C@H](CCl)CN3C(=O)c1cc2cc(NC(=O)c3cc4cc(N)ccc4[nH]3)ccc2[nH]1` [compound 23, (8S)-6-[(5-{[(5-amino-1H-indol-2-yl)carbonyl]amino}-1H-indo-2-yl)carbonyl]-8-(chloromethyl)-1-methyl-7,8-dihydro-6H-thieno[3,2-e]indol-4-yl 4-methylpiperazine-1-carboxylate hydrochloride], the IC50 was < 50 nM.

Regarding `Cc1csc2c(OC(=O)N3CCN(C)CC3)cc3c(c12)[C@H](CCl)CN3C(=O)c1cc2cc(NC(=O)c3cc4cc(NC(=O)OC(C)(C)C)ccc4[nH]3)ccc2[nH]1` [Compd. 22, (8S)-6-({5-[({5-[(tert-butoxycarbonyl)amino]-1H-indol-2-yl}carbonyl)amino]-1H-indol-2-yl}carbonyl)-8-(chloromethyl)-1-methyl-7,8-dihydro-6H-thieno[3,2-e]indol-4-yl 4-methylpiperazine-1-carboxylate], the 50% inhibitory concentration (IC50) is < 0.1 nM.

For a further experiment, the target named is cathepsin B (Homo sapiens, UniProt P07858). The experiment in a line: Release of a drug moiety from a conjugate in presence of cathepsin. The experiment is classed as biochemical. The following applies: 0.2 unit cathepsin B, sodium acetate buffer pH 5.5, 1 mM Cys, 2 hours at 40° C., HPLC ESI-MS analysis. As for the experimental part: The conjugate A1 was incubated with 0.2 unit of cathepsin B in sodium acetate buffer pH 5.5 and 1 mM Cys for 2 hours at 40° C.
Disappearance of the conjugate A1 and release of the corresponding compound of formula (II), i.e. compd. 37, as well as of its precursor A3, confirms the breaking of the Z peptidic linker of the conjugate.
Take `Cc1csc2c(OC(=O)N(C)CCN(C)C(=O)OCc3ccc(NC(=O)[C@H](CCCNC(N)=O)NC(=O)[C@@H](NC(=O)CCCCCN4C(=O)CC(SC[C@H](N)C(=O)O)C4=O)C(C)C)cc3)cc3c(c12)[C@H](CCl)CN3C(=O)c1cc2cc(OCCN3CCCC3)ccc2[nH]1` (stereo partly shown) [conjugate A1]: the “release of the compound of formula (II) (compd. 37) from the conjugate” value is “Complete release”.
